For this experiment, the target named is T1, Tyrosine-protein kinase ABL1 [229-512] (Homo sapiens, UniProt P00519).
T1 construct: 229-512
T1 sequence (P00519 whole entry): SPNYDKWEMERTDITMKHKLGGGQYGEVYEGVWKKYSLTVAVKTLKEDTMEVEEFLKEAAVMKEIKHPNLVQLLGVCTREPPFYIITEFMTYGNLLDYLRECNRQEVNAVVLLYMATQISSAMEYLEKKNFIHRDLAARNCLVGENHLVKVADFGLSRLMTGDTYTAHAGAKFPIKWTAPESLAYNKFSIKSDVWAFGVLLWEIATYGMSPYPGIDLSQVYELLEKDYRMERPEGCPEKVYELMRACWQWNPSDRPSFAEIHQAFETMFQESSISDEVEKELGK
The experiment can be described thus: Kinome-Wide Inhibitor Profiling for Phosphorylated c-Abl.

For two compounds, Kd results are on record in BindingDB's records for doi:10.1021/acschembio.5b01018 (Stony Brook University, 2016).

Description: Inhibitor selectivity profiles were obtained through Luceome Biotechnologies (Tuscon, AZ). Each inhibitor was screened at 0.5 μM against phosphorylated c-Abl.

For the compound `Cc1nc(Nc2ncc(C(=O)Nc3cc(NC(=O)c4cccc(C(F)(F)F)c4)ccc3C)s2)cc(N2CCN(CCO)CC2)n1` [DAS-DFGO-II], the Kd (as a rule, a measure of binding affinity in units of concentration) came to 2 nM.

`Cc1nc(Nc2ncc(C(=O)Nc3cccc(NC(=O)c4cccc(C(F)(F)F)c4)c3)s2)cc(N2CCN(CCO)CC2)n1` [DAS-DFGO-I] came in with a Kd of 1.8 nM.
